{
  "source": "ChEMBL document CHEMBL1137949",
  "about": "“Mechanism of action of pyridazine analogues on protein tyrosine phosphatase 1B (PTP1B)” (Bioorg Med Chem Lett, 2004)",
  "key": {"[1]": {"experiment": "Enzymatic activity of protein tyrosine phosphatase 1B in the presence (10 uM) was measured using para-nitrophenylphosphate (pNPP) as the substrate; active"}, "[2]": {"experiment": "Enzymatic activity of protein tyrosine phosphatase 1B in the presence (10 uM) was measured using para-nitrophenylphosphate (pNPP) as the substrate in the presence of TCEP (1 mM) and catalase (25 ug/mL); activity not restored"}, "[3]": {"experiment": "Enzymatic activity of protein tyrosine phosphatase 1B in the presence (10 uM) was measured using para-nitrophenylphosphate (pNPP) as the substrate in the presence of TCEP (1 mM); inhibited"}, "[4]": {"experiment": "Enzymatic activity of protein tyrosine phosphatase 1B in the presence (10 uM) was measured using para-nitrophenylphosphate (pNPP) as the substrate in the presence of […] (1 mM) and catalase (25 ug/mL); abolished the inhibitory effect"}, "[5]": {"experiment": "Enzymatic activity of protein tyrosine phosphatase 1B in the presence (10 uM) was measured using para-nitrophenylphosphate (pNPP) as the substrate in the presence of […] (1 mM); inhibited"}, "[6]": {"experiment": "Inhibitory activity against Protein-tyrosine phosphatase activity; active"}},
  "note": "Active and inactive are the calls of the source. No cut-off for these calls is given here.",
  "data": [
    {"smiles": "CC1(C)C=C2C(=NN(c3ccccc3)C(N)=C2C#N)CO1", "values": [
      {"measurement": "Activity", "setting": "[1]", "result": "Active"}
    ]},
    {"smiles": "O=C(O)CCP(CCC(=O)O)CCC(=O)O", "values": [
      {"measurement": "Activity", "setting": "[1]", "result": "Active"}
    ]},
    {"smiles": "OC(CS)C(O)CS", "note": "(centres undefined)", "values": [
      {"measurement": "Activity", "setting": "[1]", "result": "Active"}
    ]},
    {"smiles": "CC1(C)C=C2C(=NN(c3ccccc3)C(N)=C2C#N)CO1.O=C(O)CCP(CCC(=O)O)CCC(=O)O", "values": [
      {"measurement": "Activity", "setting": "[2]", "result": "activity not restored"},
      {"measurement": "Activity", "setting": "[3]", "result": "activity not restored"}
    ]},
    {"smiles": "CC1(C)C=C2C(=NN(c3ccccc3)C(N)=C2C#N)CO1.OC(CS)C(O)CS", "values": [
      {"measurement": "Activity", "setting": "[4]", "result": "abolished the inhibitory effect"},
      {"measurement": "Activity", "setting": "[5]", "result": "abolished the inhibitory effect"}
    ]},
    {"smiles": "OO", "values": [
      {"measurement": "Activity", "setting": "[6]", "result": "Active"}
    ]},
    {"smiles": "O=C1CC(=O)N(c2ccccc2)O1", "values": [
      {"measurement": "Activity", "setting": "[6]", "result": "Active"}
    ]}
  ]
}
